What was measured:
[1] = system: HBV; test: HBV replication assay in HepG2-2.2.15 cells; format: cell-based
Experimental: To test anti—HBV-activity of compounds the HBV-producing cell line HepG2-2.2.15 (M. A. Sells, PNAS 1987, 84, 1005-1009) was used. 1.0×10^4 cells were seeded in 96-well microtiter plates in DMEM medium supplemented with 10% FCS. After incubation at 37° C. in 5% CO2 atmosphere for 24 hours the medium was replaced with fresh medium containing the appropriately diluted compound. 3 days later medium was replaced by freshly prepared inhibitor-containing medium and the cells were incubated for further 3 days. Subsequently 200 μl lysis buffer (50 mM Tris-Cl 7.5; 1 mM EDTA 8.0; 0.5% NP40) per well was added. To remove cell debris and […], lysate was centrifuged (15000 rpm, 10 min, 4° C.). Cellular and viral RNA was removed by addition of 2 μl of RNase. 100 μl of the samples were spotted onto an uncharged nylon membrane pre-wetted with PBS (phosphate-buffered saline) using a 96 well-blotting chamber (MINIfold Dot-Blot, Schleicher&Schüll). After further washing with 200 μl PBS per well the membrane was treated twice with 0.5 M NaOH, 1.5 M NaCl (2 min) and 4 times with 0.5 M Tris 7.5, 3 M NaCl (1 min). The nucleic acids were fixed by UV-treatment and used for hybridisabon with a radioactive HBV-fragment prepared from the overgenome-length HBV-plasmid pT-HBV1.3 (L. G. Guidotti et al., Journal of Virology 1995., 69(10), 6158-6169).
The fixed membrane was pre-hybridized in a standard hybridisation buffer (50% formamide, 5×SSPE, 10×Denhards, 1% SDS, 100 μg/ml salmon sperm DNA) for at least 3 hours at 42° C. and hybridised overnight against the labelled HBV-fragment. The preparation of the HBV-fragment with the “Random primers DNA labelling system” (Invitrogen) was done according to the manufacturer's instructions. Hybridized filter were washed at room temperature with 2×SSC, at 62° C. with 2×SSC, 0.5% SDS and at 62° C. with 0.5×SSC, 0.5% SDS. Each washing step was carried out twice. The intensity of the HBV-DNA was quantified using a phosphoimager (Fuji). […] Absorbance was monitored at 570 nm and 600 nm wavelength.

[2] = system: HepG2-2.2.15-cells; format: cell-based
Experimental: The fixed membrane was pre-hybridized in a standard hybridisation buffer (50% formamide, 5×SSPE, 10×Denhards, 1% SDS, 100 μg/ml salmon sperm DNA) for at least 3 hours at 42° C. and hybridised overnight against the labelled HBV-fragment. The preparation of the HBV-fragment with the “Random primers DNA labelling system” (Invitrogen) was done according to the manufacturer's instructions. Hybridized filter were washed at room temperature with 2×SSC, at 62° C. with 2×SSC, 0.5% SDS and at 62° C. with 0.5×SSC, 0.5% SDS. Each washing step was carried out twice. The intensity of the HBV-DNA was quantified using a phosphoimager (Fuji). To test the cell viability 0.5×10^4 HepG2-2.2.15-cells were seeded in 96-well-microtiter plates in DMEM medium supplemented with 10% fetal bovine serum. After incubation at 37° C. for 24 hours the medium was replaced by fresh compound-containing medium. 3 days later medium was replaced again by freshly prepared medium containing the inhibitor and the cells were incubated for further 3 days at 37° C. After the incubation period 1/10 volume of Alamar Blue (Serotec) solution containing a growth dependant indicator was added and the cells were incubated for 3 h at 37° C. Absorbance was monitored at 570 nm and 600 nm wavelength.

[3] = system: NFκB-dependent transcriptional activity; test: NFκB-dependent transcriptional activity (NIH 3T3 75E 11/300D8 cell line); format: cell-based
Text: NFκB-dependent Transcriptional Activity:
The used NIH 3T3 75E 11/300D8 cell line is described elsewhere (J. Eickhoff et al., Journal of Biological Chemistry, 2004, 279(10), 9642-9652).
It is known, that CDK9 regulates the NFκB-dependent transitional activity. With Compound 4, Compound 7 and Compound 30 studies were done, to evaluate their effect on NFκB-dependent transcriptional activity.

[4] = biological target: CDK1 (Homo sapiens, UniProt P06493); test: General kinase assay, selectivity panel: CDK1; format: biochemical; conditions: 10 μM of compound, in comparison to DMSO (0% inhibition)
Summary of the method: (§1)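 Inhibition by 10 μM compound, expressed relative to DMSO as 0%, comes from a 33P-ATP kinase reaction (1 hr, room temperature) quenched with EDTA. Phosphorylated substrate is bound to filters, rinsed in 0.75% H3PO4, and read by scintillation.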

[5] = system: PDGFR; test: General kinase assay, selectivity panel: PDGFR; format: biochemical; conditions: 10 μM of compound, in comparison to DMSO (0% inhibition)
Summary of the method: as §1

[6] = system: protein kinases of PM1 cell lysates; test: Affinity chromatography with immobilised compound, PM1 cell lysate, mass spectrometry: additional targets; format: binding
Experimental: (§2) Affinity Chromatography Experiments:
(§3) Coupling to epoxy-groups: 500 μl drained epoxy-activated Sepharose 6B (Amersham Biosciences) equilibrated to 50% DMF/0.1M Na2CO3 were resuspended in 1 ml 20 mM Compound 102 or 20 mM Compound 103, respectively, dissolved in 50% DMF (Dimethylfomamid)/0.1 M Na2CO3. 5 μl 10M NaOH was added followed by incubation overnight at 30° C. with permanent shaking in the dark. After washing three times in 1 ml 50% DMF/0.1M Na2CO3 the beads were incubated in 1 ml 1M ethanolamine for 6 h at 30° C. with permanent shaking in the dark followed by the denoted washing steps: 50% DMF/0.1M Na2CO3, then H2O, then 0.1M NaHCO3 pH 8.0/0.5M NaCl followed by 0.1M NaAc pH 4.0/0.1M NaCl and finally three times in chromatography buffer (see below) containing 150 mM NaCl. As control matrix epoxy-activated Sepharose 6B was incubated with 1M ethanolamine and equally treated as described above. The beads were stored in 20% ethanol at 4° C. in the dark.
Carbodiimide coupling: ECH-Sepharose 4B (Amersham Biosciences) was washed according to the manufacturer's instructions and equilibrated to 50% DMF/50% ethanol. 2.5 ml drained beads were resuspended in 5 ml 15 mM Compound 102 or Compound 103, respectively, dissolved in 50% DMF/50% ethanol followed by drop by drop addition of 750 μl 1M 1-ethyl-3-(3-dimethylaminopropyl) carbodiimide hydrochloride (EDC), dissolved in 50% DMF/50% ethanol. The suspension was incubated overnight at room temperature with permanent end-over-end rotation and washed three times with 15 ml 50% DMF/50% ethanol prior to the addition of 5 ml 33% DMF/33% ethanol/34% 1M ethanolamine pH 8.0 and 650 μl EDC. After 2 h incubation at room temperature with permanent end-over-end rotation, beads were washed three times with 15 ml 50% DMF/50% ethanol, twice with 15 ml 0.5M NaCl and once with 15 ml 20% ethanol. Control beads were incubated with 5 ml 1M ethanolamine instead of compound and treated equally as described above. The beads were stored in 20% ethanol at 4° C. in the dark.
Affinity Chromatography and Preparative Gel Electrophoresis.
1.25×10^9 PM1 cells were lysed in 15 ml buffer containing 50 mM HEPES pH 7.5, 400 mM NaCl, 0.5% Triton X-100, 1 mM EDTA, 1 mM EGTA, 3 mM MgCl2, 1 mM DTT plus additives (10 mM sodium fluoride, 1 mM orthovanadate, 10 μg/ml aprotinin, 10 μg/ml leupeptin, 1 mM PMSF), cleared by centrifugation and adjusted to 1M NaCl. The filtered lysate was loaded with a flow rate of 100 μl/min on a […] chromatography column containing 500 μl Compound 102 or Compound 103 matrix, respectively, equilibrated to chromatography buffer (20 mM HEPES pH 7.5, 0.25% Triton X-100, 1 mM EDTA, 1 mM EGTA) containing 1M NaCl. […]

[7] = biological target: Abl (Homo sapiens, UniProt P00519); test: General kinase assay, selectivity panel: Abl; format: biochemical; conditions: 10 μM of compound, in comparison to DMSO (0% inhibition)
Summary of the method: as §1

[8] = biological target: T1, CDK5/p35 (Homo sapiens, UniProt Q00535); test: Kinase assay determining CDK5/p35 activity (selectivity panel); format: biochemical; conditions: 10 μM of compound, in comparison to DMSO (0% inhibition)
T1 construct: purchased Upsate (Upstate)
Experimental: Kinase Assays Determining CDK2/CyclinA and CDK5/p35 Activity:
Kinase assays were performed as described by the manufacturers recommendations (Proqinase for CDK2/CyclinA and Upsate for CDK5/p35).
The activity of these protein kinases is depicted as % inhibition in the presence of 10 μM of compound in comparison to DMSO (0% inhibition).

[9] = biological target: T2, CDK9 (Homo sapiens, UniProt P50750); test: Affinity chromatography with immobilised compound, PM1 cell lysate, mass spectrometry: CDK9; format: binding; conditions: compound coupled to ECH-Sepharose
T2 construct: endogenous in cells; host or cells: PM1 cells (lysate)
Experimental: as §2, §3
Carbodiimide coupling: ECH-Sepharose 4B (Amersham Biosciences) was washed according to the manufacturer's instructions and equilibrated to 50% DMF/50% ethanol. 2.5 ml drained beads were resuspended in 5 ml 15 mM Compound 102 or Compound 103, respectively, dissolved in 50% DMF/50% ethanol followed by drop by drop addition of 750 μl 1M 1-ethyl-3-(3-dimethylaminopropyl) carbodiimide hydrochloride (EDC), dissolved in 50% DMF/50% ethanol. […]

[10] = biological target: EGFR (Homo sapiens, UniProt P00533); test: General kinase assay, selectivity panel: EGFR; format: biochemical; conditions: 10 μM of compound, in comparison to DMSO (0% inhibition)
Summary of the method: as §1

[11] = biological target: GSK-3β (Homo sapiens, UniProt P49841); test: General kinase assay, selectivity panel: GSK-3β; format: biochemical; conditions: 10 μM of compound, in comparison to DMSO (0% inhibition)
Summary of the method: as §1

[12] = compound coupled to ECH-Sepharose, mass spectrometry

T2 sequence (P50750 whole entry): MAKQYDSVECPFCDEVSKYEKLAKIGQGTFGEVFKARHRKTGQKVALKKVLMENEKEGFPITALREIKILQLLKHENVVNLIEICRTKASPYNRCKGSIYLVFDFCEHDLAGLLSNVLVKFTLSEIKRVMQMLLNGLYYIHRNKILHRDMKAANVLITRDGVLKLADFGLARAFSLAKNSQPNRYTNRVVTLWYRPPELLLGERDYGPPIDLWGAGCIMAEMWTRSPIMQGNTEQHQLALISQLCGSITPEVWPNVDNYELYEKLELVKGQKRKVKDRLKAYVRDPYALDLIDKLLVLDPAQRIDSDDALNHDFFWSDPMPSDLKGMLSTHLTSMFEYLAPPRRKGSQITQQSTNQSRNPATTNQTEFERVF
T1 sequence (Q00535 whole entry): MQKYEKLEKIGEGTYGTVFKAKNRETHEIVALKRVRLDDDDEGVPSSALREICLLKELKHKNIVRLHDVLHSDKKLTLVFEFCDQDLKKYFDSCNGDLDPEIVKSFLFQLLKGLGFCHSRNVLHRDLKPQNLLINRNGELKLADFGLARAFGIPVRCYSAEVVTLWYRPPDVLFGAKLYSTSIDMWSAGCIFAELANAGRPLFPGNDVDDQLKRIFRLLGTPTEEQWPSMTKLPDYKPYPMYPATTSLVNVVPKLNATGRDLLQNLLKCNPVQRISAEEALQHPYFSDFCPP
T1 sequence (Q15078 whole entry partner): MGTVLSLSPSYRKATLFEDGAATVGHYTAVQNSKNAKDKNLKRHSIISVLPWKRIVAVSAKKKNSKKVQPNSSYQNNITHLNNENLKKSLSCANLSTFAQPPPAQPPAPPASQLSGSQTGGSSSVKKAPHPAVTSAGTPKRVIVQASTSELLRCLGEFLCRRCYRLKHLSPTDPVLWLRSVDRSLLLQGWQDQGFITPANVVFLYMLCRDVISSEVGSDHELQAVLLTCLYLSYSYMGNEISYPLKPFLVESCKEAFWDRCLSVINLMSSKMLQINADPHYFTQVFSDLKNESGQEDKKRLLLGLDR
CDK1, sequence (P06493 whole entry, species assumed): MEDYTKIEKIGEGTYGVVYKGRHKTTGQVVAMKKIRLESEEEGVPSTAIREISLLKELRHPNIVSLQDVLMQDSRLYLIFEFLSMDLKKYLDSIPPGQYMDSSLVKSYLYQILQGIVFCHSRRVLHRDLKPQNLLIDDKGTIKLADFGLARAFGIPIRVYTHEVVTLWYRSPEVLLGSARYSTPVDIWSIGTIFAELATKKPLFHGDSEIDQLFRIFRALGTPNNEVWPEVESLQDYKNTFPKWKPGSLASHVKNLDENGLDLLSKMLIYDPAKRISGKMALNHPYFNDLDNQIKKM
CDK1, sequence (P14635 whole entry partner, species assumed): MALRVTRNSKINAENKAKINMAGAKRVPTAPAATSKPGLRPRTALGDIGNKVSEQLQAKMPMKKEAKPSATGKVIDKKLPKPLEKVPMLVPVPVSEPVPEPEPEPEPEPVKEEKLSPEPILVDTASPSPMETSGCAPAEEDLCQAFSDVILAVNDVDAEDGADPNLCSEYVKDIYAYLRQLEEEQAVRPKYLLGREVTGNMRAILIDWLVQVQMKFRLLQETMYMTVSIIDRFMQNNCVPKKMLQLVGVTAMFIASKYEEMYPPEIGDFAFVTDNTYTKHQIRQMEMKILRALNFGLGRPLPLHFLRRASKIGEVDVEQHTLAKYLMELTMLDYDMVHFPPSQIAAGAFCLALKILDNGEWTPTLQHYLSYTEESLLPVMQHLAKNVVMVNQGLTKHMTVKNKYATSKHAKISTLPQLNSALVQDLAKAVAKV
EGFR, sequence (P00533 25-1210, species assumed): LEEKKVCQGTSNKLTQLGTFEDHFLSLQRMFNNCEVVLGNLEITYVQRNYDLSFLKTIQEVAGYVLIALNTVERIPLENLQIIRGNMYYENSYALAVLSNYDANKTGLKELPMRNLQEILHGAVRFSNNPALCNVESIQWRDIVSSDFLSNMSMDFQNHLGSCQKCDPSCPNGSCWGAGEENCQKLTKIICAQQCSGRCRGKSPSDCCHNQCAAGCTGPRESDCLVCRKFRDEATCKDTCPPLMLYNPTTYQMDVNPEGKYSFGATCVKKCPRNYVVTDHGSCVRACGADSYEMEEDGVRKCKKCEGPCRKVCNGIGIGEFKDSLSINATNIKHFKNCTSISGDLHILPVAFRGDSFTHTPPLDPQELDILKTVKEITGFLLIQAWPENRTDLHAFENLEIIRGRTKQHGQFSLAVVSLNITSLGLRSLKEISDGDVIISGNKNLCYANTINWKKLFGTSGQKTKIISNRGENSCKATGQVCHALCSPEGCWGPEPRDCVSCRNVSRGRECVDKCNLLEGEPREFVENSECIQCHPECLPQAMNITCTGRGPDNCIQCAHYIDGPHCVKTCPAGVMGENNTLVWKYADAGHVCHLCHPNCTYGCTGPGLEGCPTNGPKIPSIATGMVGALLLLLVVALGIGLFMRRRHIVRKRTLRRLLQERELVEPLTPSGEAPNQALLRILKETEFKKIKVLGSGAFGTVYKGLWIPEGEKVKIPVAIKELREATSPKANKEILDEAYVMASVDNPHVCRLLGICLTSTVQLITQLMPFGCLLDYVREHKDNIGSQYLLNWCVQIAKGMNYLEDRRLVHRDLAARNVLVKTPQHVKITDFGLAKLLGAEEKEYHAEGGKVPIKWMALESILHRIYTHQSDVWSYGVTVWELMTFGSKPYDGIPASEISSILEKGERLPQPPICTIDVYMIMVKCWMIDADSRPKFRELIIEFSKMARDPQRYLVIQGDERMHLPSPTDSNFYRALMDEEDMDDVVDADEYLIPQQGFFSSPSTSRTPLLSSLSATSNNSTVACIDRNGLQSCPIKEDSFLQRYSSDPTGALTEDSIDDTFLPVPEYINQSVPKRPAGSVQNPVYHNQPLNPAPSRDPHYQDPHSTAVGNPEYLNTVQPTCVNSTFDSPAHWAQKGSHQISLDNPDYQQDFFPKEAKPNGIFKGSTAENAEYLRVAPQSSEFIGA
GSK-3β, sequence (P49841 whole entry, species assumed): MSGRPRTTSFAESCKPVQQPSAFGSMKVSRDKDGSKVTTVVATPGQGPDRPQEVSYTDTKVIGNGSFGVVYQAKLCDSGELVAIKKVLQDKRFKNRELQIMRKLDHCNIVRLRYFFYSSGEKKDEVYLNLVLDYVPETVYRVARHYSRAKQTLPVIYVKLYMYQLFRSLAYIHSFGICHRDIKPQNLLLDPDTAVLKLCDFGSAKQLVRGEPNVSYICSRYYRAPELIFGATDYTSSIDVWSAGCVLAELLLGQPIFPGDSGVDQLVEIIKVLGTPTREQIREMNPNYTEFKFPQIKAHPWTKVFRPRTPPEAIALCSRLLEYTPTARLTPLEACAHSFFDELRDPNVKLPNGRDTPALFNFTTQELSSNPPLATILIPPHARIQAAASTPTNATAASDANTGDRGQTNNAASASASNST
Abl, sequence (P00519 whole entry, species assumed): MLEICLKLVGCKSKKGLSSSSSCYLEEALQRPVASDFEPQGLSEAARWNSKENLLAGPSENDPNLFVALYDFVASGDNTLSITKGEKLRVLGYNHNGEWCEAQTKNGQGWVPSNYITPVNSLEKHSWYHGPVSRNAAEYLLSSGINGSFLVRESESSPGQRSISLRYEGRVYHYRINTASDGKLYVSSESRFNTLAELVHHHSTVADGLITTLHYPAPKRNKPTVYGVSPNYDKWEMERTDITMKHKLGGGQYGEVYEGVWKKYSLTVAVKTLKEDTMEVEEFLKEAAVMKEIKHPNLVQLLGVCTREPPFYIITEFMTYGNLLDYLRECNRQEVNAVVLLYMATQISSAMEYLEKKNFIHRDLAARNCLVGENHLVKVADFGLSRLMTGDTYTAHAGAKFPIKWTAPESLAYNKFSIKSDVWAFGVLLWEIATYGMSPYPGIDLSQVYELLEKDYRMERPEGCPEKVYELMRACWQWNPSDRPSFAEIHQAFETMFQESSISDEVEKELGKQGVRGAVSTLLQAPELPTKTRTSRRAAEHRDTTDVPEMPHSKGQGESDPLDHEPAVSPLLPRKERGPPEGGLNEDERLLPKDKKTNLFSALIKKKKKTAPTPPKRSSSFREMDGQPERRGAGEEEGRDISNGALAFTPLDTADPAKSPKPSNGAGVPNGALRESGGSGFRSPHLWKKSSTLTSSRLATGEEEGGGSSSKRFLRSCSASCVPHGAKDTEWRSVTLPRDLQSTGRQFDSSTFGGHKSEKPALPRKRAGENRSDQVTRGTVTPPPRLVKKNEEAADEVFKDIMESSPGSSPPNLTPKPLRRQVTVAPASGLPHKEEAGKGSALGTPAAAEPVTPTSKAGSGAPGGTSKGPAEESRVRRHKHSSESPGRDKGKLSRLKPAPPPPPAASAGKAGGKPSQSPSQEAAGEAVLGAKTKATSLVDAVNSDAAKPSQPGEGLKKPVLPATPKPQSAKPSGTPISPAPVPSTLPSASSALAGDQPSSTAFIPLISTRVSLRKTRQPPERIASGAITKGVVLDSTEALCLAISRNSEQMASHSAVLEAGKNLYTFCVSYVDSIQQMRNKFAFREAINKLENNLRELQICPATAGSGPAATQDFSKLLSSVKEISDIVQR

Row | inhibition at 10 µM [4] | PDGFR (% inhibition) [5] | inhibition at 10 µM [7] | inhibition at 10 µM [8] | isolation of CDK9 out of crude PM1 cell lysates by affinity medium [9] | inhibition at 10 µM [10] | inhibition at 10 µM [11] | SMILES | HBV replication (in words) [1] | viability of the cells in the HBV replication assay [2] | inhibition of NFκB (in words, compared with Compound 30) [3] | protein kinases in eluates: CaMK2β, MLK (MRK-alpha), yes, cdc2-like protein kinase (CDC2L5), CrkRS, MAK ([6]; LCMS analysis of eluates) | additional targets bound: CaMK2γ, CaMK2δ, CDK2, MRK-beta (ZAK) [6, 12] | protein kinases in eluates: CaMK2β, GSK3α, CDK2, CrkRS, receptor similar to FGFR-3 ([6]; LCMS analysis of eluates) | additional targets bound: GSK3β, c-Src tyrosine kinase (CSK) [6, 12]
1 | – | – | – | – | – | – | – | c1ccc(COc2ccccc2-c2cc(NCCc3ccncc3)ncn2)cc1 [Compound 7] | inhibited replication | without affecting viability | less effectively | – | – | – | –
2 | 50 to 80% | b (inhibition between 80 and 50%: b) | 30 to 50% | > 80% | able to isolate CDK9 | > 80% | – | COc1ccccc1-c1cc(Nc2ccc(NC(=O)CCN)cc2)ncn1 [Compound 102, 3-Amino-N-{4-[6-(2-methoxy-phenyl)-pyrimidin-4-ylamino]-phenyl}-propionamide] | – | – | – | identified | specifically bound | – | –
3 | 50 to 80% | c (inhibition between 50 and 30%: c) | – | 50 to 80% | able to isolate CDK9 | > 80% | 50 to 80% | NCCCOc1ccccc1-c1cc(Nc2ccc(NC(=O)c3ccc(N)cc3)cc2)ncn1 [Compound 103, 4-Amino-N-(4-{6-[2-(3-amino-propoxy)phenyl]-pyrimidin-4-ylamino}-phenyl)-benzamide] | – | – | – | – | – | detected | specifically bound
